The text below walks through data of PubChem BioAssay (NCI).

Among the test systems are SK-MEL-5 melanoma; ACHN renal; SK-OV-3 ovarian; CCRF-CEM leukemia; A498 renal; HS 578T breast; T-47D breast; MCF7 breast; OVCAR-3 ovarian; HOP-92 NSCLC.
Experiment in all cases: NCI anticancer screen, dose series, 48 h

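How tested: cells in 96-well plates exposed to compound for 48 hours at five concentrations. The concentration for full growth arrest is given as TGI.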

With `FC(F)(Sc1ncc[nH]1)c1nc2ccccc2o1`, the TGI with SK-MEL-5 melanoma, in the assay with ACHN renal, in the assay on SK-OV-3 ovarian, in the assay with CCRF-CEM leukemia, in the assay on A498 renal and in the assay with HS 578T breast was over 100 µM throughout. The TGI with T-47D breast, in the assay on MCF7 breast, with OVCAR-3 ovarian and with HOP-92 NSCLC was over 100 µM each time.

Consider `CC(C)Cc1cc2c(cc1O)CCC1C2CC[C@@]2(C)C1CC[C@@H]2O` (stereo partly drawn), for which the TGI in the assay on SK-MEL-5 melanoma came out at 20.3 µM; in the assay on ACHN renal it was 20 µM; in the assay on SK-OV-3 ovarian, 24.3 µM; in the assay with CCRF-CEM leukemia, 27.1 µM; with A498 renal, 35.5 µM; in the assay on HS 578T breast, 23.7 µM. Besides, the TGI in the assay on T-47D breast was determined as 23.4 µM; in the assay on MCF7 breast it was 25.9 µM; in the assay on OVCAR-3 ovarian it was 16.6 µM; with HOP-92 NSCLC it was 26.6 µM.

Take `C[N+](C)(C)CC(=O)N/N=C/c1ccncc1`: the TGI with SK-MEL-5 melanoma, with ACHN renal, in the assay on SK-OV-3 ovarian, in the assay with CCRF-CEM leukemia, in the assay with A498 renal and in the assay on HS 578T breast was over 100 µM each time. Moreover, the TGI in the assay with T-47D breast, in the assay with MCF7 breast, in the assay with OVCAR-3 ovarian and in the assay with HOP-92 NSCLC was over 100 µM in each case.

Consider `c1ccc2c(c1)NC1(N3CCCCC3)CCCCC21` (stereo not drawn), for which the TGI with SK-MEL-5 melanoma was over 100 µM; in the assay on ACHN renal, over 100 µM; with SK-OV-3 ovarian it was over 100 µM; with CCRF-CEM leukemia, over 100 µM; in the assay on A498 renal, 98 µM; with HS 578T breast it was over 100 µM. In addition, the TGI in the assay on T-47D breast was 78.1 µM; in the assay with MCF7 breast, over 100 µM; with OVCAR-3 ovarian, over 100 µM; in the assay on HOP-92 NSCLC it was 84 µM.

Take `O=c1c2cc(Cl)cc(Cl)c2oc2nc3n(c(=O)c12)CCCS3`: the TGI with SK-MEL-5 melanoma, with ACHN renal, in the assay on SK-OV-3 ovarian, in the assay on CCRF-CEM leukemia, with A498 renal and in the assay on HS 578T breast was over 100 µM in each case. Moreover, the TGI with T-47D breast, in the assay on MCF7 breast, in the assay with OVCAR-3 ovarian and in the assay with HOP-92 NSCLC was over 100 µM in each case.

`O=C(CSc1nc2ccc(I)cc2c(=O)n1Cc1ccccc1)NNC(=O)c1ccccc1`: the TGI with SK-MEL-5 melanoma is 33 µM; with ACHN renal, 75.4 µM; in the assay on SK-OV-3 ovarian, 44.9 µM; in the assay on CCRF-CEM leukemia, over 100 µM; in the assay on A498 renal, 25.7 µM; with HS 578T breast, 9.4 µM. The TGI in the assay on T-47D breast came out at 30.5 µM; in the assay on MCF7 breast it was 23.2 µM; with OVCAR-3 ovarian, 90.4 µM; with HOP-92 NSCLC it was 28.2 µM.

In the case of `O=C(CCCl)NNC1=NCCCN1`, the TGI in the assay with SK-MEL-5 melanoma, in the assay on ACHN renal, in the assay on SK-OV-3 ovarian, with CCRF-CEM leukemia, with A498 renal and with HS 578T breast was over 100 µM each time. In addition, the TGI in the assay on T-47D breast, in the assay with MCF7 breast, in the assay with OVCAR-3 ovarian and with HOP-92 NSCLC was over 100 µM throughout.

Turning to `CC1CCC2(CC1)NC1=C(CC(C)CC1)C1=C2CC(C)CC1` (stereo not drawn), the TGI is 24.4 µM in the assay on SK-MEL-5 melanoma; 62.8 µM in the assay on ACHN renal; over 100 µM with SK-OV-3 ovarian; 43.6 µM in the assay with CCRF-CEM leukemia; over 100 µM with A498 renal; 63.2 µM in the assay with HS 578T breast. The TGI in the assay with T-47D breast amounted to 78.6 µM; in the assay with MCF7 breast, 34.5 µM; with OVCAR-3 ovarian, 37.4 µM; with HOP-92 NSCLC, 39.4 µM.

As for `C[C@@H](NC(=O)c1ccc(CNC(=O)/C=C/c2cccc(Oc3ccccc3)c2)cc1)c1ccccc1`, the TGI in the assay on SK-MEL-5 melanoma was over 100 µM; in the assay with ACHN renal, 36 µM; with SK-OV-3 ovarian, over 100 µM; in the assay with CCRF-CEM leukemia, over 100 µM; in the assay on A498 renal, over 90.4 µM; in the assay with HS 578T breast, 33.4 µM. For the same molecule, the TGI in the assay on T-47D breast, with MCF7 breast, in the assay on OVCAR-3 ovarian and in the assay with HOP-92 NSCLC was over 100 µM each time.

In the case of `Cc1ccc2nc(C=Nc3ccc(Cl)cc3)cc(C)c2c1`, the TGI with SK-MEL-5 melanoma was 25.2 µM; in the assay with ACHN renal, over 96.4 µM; with SK-OV-3 ovarian, over 100 µM; in the assay with CCRF-CEM leukemia it was 13.1 µM; with A498 renal it was over 100 µM; in the assay on HS 578T breast it was over 69.4 µM. Moreover, the TGI in the assay with T-47D breast came to 48.1 µM; with MCF7 breast it was 83.7 µM; with OVCAR-3 ovarian it was 32.2 µM; in the assay with HOP-92 NSCLC it was 81 µM.

In the case of `O=C(O)CCCc1ccc2ccccc2c1`, the TGI in the assay on SK-MEL-5 melanoma, in the assay with ACHN renal, in the assay on SK-OV-3 ovarian, in the assay on CCRF-CEM leukemia, with A498 renal and with HS 578T breast was over 100 µM each time. Also, the TGI in the assay on T-47D breast, in the assay on MCF7 breast, in the assay with OVCAR-3 ovarian and in the assay with HOP-92 NSCLC was over 100 µM each time.

Take `CCOC(=O)C(NC(=O)c1ccccc1)(Nc1ccc(Cl)cc1C(F)(F)F)C(F)(F)F` (stereo not drawn): the TGI was over 37.5 µM with SK-MEL-5 melanoma; 27.4 µM in the assay on ACHN renal; over 100 µM in the assay on SK-OV-3 ovarian; 47.1 µM in the assay on A498 renal; over 100 µM in the assay with HS 578T breast; over 45.6 µM with T-47D breast. In addition, the TGI was over 100 µM in the assay with MCF7 breast, 18.7 µM with OVCAR-3 ovarian and 50.7 µM in the assay with HOP-92 NSCLC.

Consider `Cc1nnc(N)nc1/C=C/c1c(O)ccc2ccccc12`, for which the TGI was 94.4 µM with SK-MEL-5 melanoma; 43.7 µM with ACHN renal; over 100 µM in the assay with SK-OV-3 ovarian; over 100 µM with CCRF-CEM leukemia; 47.1 µM in the assay with A498 renal; 85 µM in the assay with HS 578T breast. Moreover, the TGI in the assay on T-47D breast is over 100 µM; in the assay with MCF7 breast, over 100 µM; in the assay on HOP-92 NSCLC it was 86.9 µM.
